Among the data in PubChem BioAssay (NCI) are TGI and GI50 values, retold here.

SMILES strings stand for the structures. “And” between values parts separate entries of the source, which are not always exact repeats. Identical values can stand only once.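 Cells were grown in 96-well plates and exposed to each compound for 48 hours at five concentrations; endpoints were interpolated linearly between bracketing concentrations, or set to the highest concentration if not reached. GI50 marks 50% less growth. TGI marks complete inhibition of growth.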

Some test systems named below: DMS 273 small cell lung; HCT-116 colon; IGROV1 ovarian; RXF 393 renal; SNB-19 CNS; SW-620 colon; XF 498 CNS; DU-145 prostate; HS 578T breast; T-47D breast.
Common to all, as to experiment: growth of human tumour cells (NCI), 48 h

Consider `COC(=O)C1C(C(=O)OC)C2C(=O)C3C(C(=O)OC)C(C(=O)OC)C3C(=O)C12` (stereo not drawn), for which the TGI in the assay on DMS 273 small cell lung, in the assay on HCT-116 colon, in the assay on IGROV1 ovarian, with RXF 393 renal, with SNB-19 CNS and with SW-620 colon was > 100 µM each time. The TGI with XF 498 CNS is > 100 µM.

Consider `CC1=N/C(=C\c2ccc(/C=C3/N=C(C)OC3=O)cc2)C(=O)O1`, for which the TGI in the assay with DMS 273 small cell lung, in the assay with HCT-116 colon, with IGROV1 ovarian, in the assay on RXF 393 renal, in the assay with SNB-19 CNS and in the assay on SW-620 colon was > 100 µM throughout. Besides, the TGI in the assay with XF 498 CNS is > 100 µM.

Regarding `COC(=O)/C=C(/C(=O)OC)C1(C)c2cc(C(=O)OC)c(C(=O)OC)c(N)c2C(=N)N1c1ccccc1` (stereo not drawn), the TGI in the assay with DMS 273 small cell lung was > 100 µM; in the assay on HCT-116 colon, 29.3 µM; in the assay with IGROV1 ovarian, 76.8 µM; with RXF 393 renal it was 36.1 µM; in the assay with SNB-19 CNS it was > 100 µM; in the assay on XF 498 CNS it was 28.4 µM.

On to `Cc1ccc(S(=O)(=O)OCC/C(=C\[Si](C)(C)C)c2ccccc2)cc1`, for which the TGI in the assay with DMS 273 small cell lung, in the assay on HCT-116 colon, in the assay on IGROV1 ovarian, with RXF 393 renal, with SNB-19 CNS and in the assay with SW-620 colon was > 100 µM throughout. Moreover, the TGI in the assay with XF 498 CNS is > 100 µM.

As to `CCOC(=O)c1nc(C)oc1C(F)(F)F`, the TGI with HCT-116 colon, in the assay with IGROV1 ovarian, with RXF 393 renal, with SNB-19 CNS, in the assay on SW-620 colon and in the assay on XF 498 CNS was > 100 µM throughout.

For the molecule `COc1nc2c(c(O)c(C)c(=O)n2OC2OCC(OC(C)=O)C(OC(C)=O)C2OC(C)=O)c(=O)n1C` (stereo not drawn), the TGI with DMS 273 small cell lung, with HCT-116 colon, in the assay with IGROV1 ovarian, in the assay with RXF 393 renal, in the assay on SNB-19 CNS and with SW-620 colon was > 100 µM throughout. Moreover, the TGI with XF 498 CNS is > 100 µM.

As to `O=C1[C@@H]2C(c3c(Cl)cccc3Cl)=NO[C@@H]2C(=O)N1c1ccc(Cc2ccc(N3C(=O)[C@H]4C(c5c(Cl)cccc5Cl)=NO[C@H]4C3=O)cc2)cc1`, the TGI in the assay with DMS 273 small cell lung, in the assay on IGROV1 ovarian, in the assay on RXF 393 renal, with SW-620 colon and in the assay with XF 498 CNS was > 100 µM in each case.

`N#CC(C(=O)C(=O)Nc1c(Cl)cccc1Cl)c1ccccc1` (stereo not drawn): the GI50 in the assay on DMS 273 small cell lung, in the assay with IGROV1 ovarian, in the assay with SNB-19 CNS and in the assay with SW-620 colon was > 100 µM in each case. The TGI in the assay on DMS 273 small cell lung, with IGROV1 ovarian, in the assay with SNB-19 CNS, in the assay on SW-620 colon and with XF 498 CNS was > 100 µM in each case.

Consider `N#C/C(=C\c1cc(OCc2ccccc2)c(OCc2ccccc2)cn1)C(N)=O`, for which the TGI with HCT-116 colon, in the assay on IGROV1 ovarian, in the assay on RXF 393 renal, in the assay on SNB-19 CNS, in the assay on SW-620 colon and in the assay on XF 498 CNS was > 100 µM throughout.

As to `NNC(=O)C(=O)N/N=C1/CCCC1C(=O)CCC(=O)Nc1ccc(Cl)cc1` (stereo not drawn), the TGI in the assay on DMS 273 small cell lung, in the assay with HCT-116 colon, with IGROV1 ovarian, in the assay on RXF 393 renal, in the assay with SNB-19 CNS and with SW-620 colon was > 100 µM in each case. Also, the TGI in the assay on XF 498 CNS was > 100 µM.

As for `O=c1/c(=C/c2ccccc2[N+](=O)[O-])sc2nnc(-c3cccnc3)n12`, the TGI was > 100 µM in the assay on DMS 273 small cell lung; > 100 µM in the assay with HCT-116 colon; > 100 µM in the assay with IGROV1 ovarian; > 100 µM in the assay on RXF 393 renal; 32.1 µM in the assay on SNB-19 CNS; 24.5 µM with SW-620 colon. Further, the TGI with XF 498 CNS was > 100 µM.

For `COc1cc2oc(-c3ccc(O)cc3)cc(=O)c2c(O)c1C1OC(CO)C(O)C(O)C1O` (stereo not drawn), the TGI in the assay with DMS 273 small cell lung, in the assay on HCT-116 colon, in the assay with IGROV1 ovarian, with SNB-19 CNS, with SW-620 colon and with XF 498 CNS was > 100 µM each time.

As to `O=C1NC2=C(CCCCC/C2=N\O)C12CCCCCC2`, the TGI in the assay with DMS 273 small cell lung, with HCT-116 colon, in the assay on IGROV1 ovarian, in the assay on RXF 393 renal, in the assay with SNB-19 CNS and in the assay with SW-620 colon was > 100 µM each time. Further, the TGI with XF 498 CNS was > 100 µM.

Consider `Cc1nc(N)nc(CCC(=O)Nc2cccc(C(F)(F)F)c2)c1-c1ccc(Cl)cc1`, for which the TGI with DMS 273 small cell lung, in the assay on HCT-116 colon, in the assay with IGROV1 ovarian, with RXF 393 renal, in the assay on SNB-19 CNS and in the assay with SW-620 colon was > 100 µM throughout. The TGI in the assay with XF 498 CNS was > 100 µM.

For the molecule `CCc1cccc(C)c1NC(=O)CCc1nc(=S)[nH][nH]1`, the TGI in the assay with HCT-116 colon, in the assay on IGROV1 ovarian, with RXF 393 renal, in the assay on SNB-19 CNS, with SW-620 colon and in the assay with XF 498 CNS was > 100 µM throughout.

Regarding `O=C1/C(=C\c2ccccc2)CN(C(=O)CCN2CCCCC2)C/C1=C/c1ccccc1`, the TGI is 3.1 µM in the assay with DMS 273 small cell lung; 17.9 µM in the assay on DU-145 prostate; 0.709 µM in the assay with HCT-116 colon; 5.87 µM in the assay on HS 578T breast; 4.48 µM with IGROV1 ovarian; 3.53 µM in the assay with RXF 393 renal. Besides, the TGI in the assay on SNB-19 CNS was found to be 4.57 µM; in the assay with SW-620 colon, 0.364 µM; in the assay on XF 498 CNS, 3.84 µM.

Take `O=C(NC1C(=O)NNC1c1cccc([N+](=O)[O-])c1)c1ccccc1` (stereo not drawn): the TGI in the assay on HCT-116 colon, with IGROV1 ovarian, with RXF 393 renal, with SNB-19 CNS, in the assay on SW-620 colon and with XF 498 CNS was > 100 µM throughout.

Regarding `OCc1cc2c(cn1)[nH]c1ccc(NCc3ccccc3)cc12`, the TGI in the assay on DMS 273 small cell lung was 48 µM; in the assay with HCT-116 colon, 38.4 µM; in the assay on IGROV1 ovarian it was > 100 µM; with RXF 393 renal, 78.5 µM; in the assay on SNB-19 CNS, > 100 µM; in the assay on SW-620 colon, 78.7 µM. In addition, in the assay with XF 498 CNS, the TGI was determined as 59.2 µM.

As to `O=[N+]([O-])c1ccccc1C1SCc2nc3ccccc3n21` (stereo not drawn), the TGI with DMS 273 small cell lung, in the assay with IGROV1 ovarian, in the assay with RXF 393 renal, in the assay on SNB-19 CNS, with SW-620 colon and in the assay with XF 498 CNS was > 100 µM throughout.

`CC1=C(C(=O)Nc2ccccc2)C(c2ccc(N(C)C)cc2)C(C(=O)Nc2ccccc2)=C(C)N1`: the TGI was > 31.8 µM with DMS 273 small cell lung; > 91.7 µM in the assay with DU-145 prostate; > 57.3 µM in the assay on HCT-116 colon; > 100 µM with HS 578T breast; > 88.3 µM with IGROV1 ovarian; > 100 µM in the assay with RXF 393 renal. Further, the TGI with SNB-19 CNS is > 100 µM; in the assay on SW-620 colon, > 83 µM; in the assay on T-47D breast it was > 93.6 µM; in the assay on XF 498 CNS, > 100 µM.

Regarding `COC1N(C2CC(O)C(CO)O2)C(=O)NC(=O)C1(F)Br` (stereo not drawn), the TGI with DMS 273 small cell lung is 50 µM; in the assay on DU-145 prostate, > 100 µM; in the assay with HCT-116 colon, 50 µM and > 100 µM; with HS 578T breast it was > 95.5 µM; in the assay on IGROV1 ovarian, > 100 µM; in the assay on RXF 393 renal, 50 µM and > 100 µM. Further, the TGI with SNB-19 CNS was 50 µM and > 100 µM; in the assay with SW-620 colon, 50 µM and > 100 µM; in the assay on T-47D breast it was > 100 µM; in the assay with XF 498 CNS, 50 µM. For the same molecule, the GI50 with HCT-116 colon is 12.6 µM; with IGROV1 ovarian, > 50 µM; in the assay on RXF 393 renal it was 37.2 µM; in the assay on SNB-19 CNS it was 26.6 µM; in the assay on SW-620 colon, 27.7 µM.

Take `O=c1cc(O)cc2n1CCC2`: the TGI in the assay with DMS 273 small cell lung, in the assay with HCT-116 colon, in the assay on IGROV1 ovarian, with RXF 393 renal, with SNB-19 CNS and with SW-620 colon was > 100 µM in each case. Moreover, the TGI in the assay on XF 498 CNS was > 100 µM.

With `COC(=O)C1C(=O)O[C@@H](c2ccc3c(c2)OCO3)C1C(=O)OC` (mixture of isomers), the TGI in the assay with DMS 273 small cell lung, with HCT-116 colon, with IGROV1 ovarian, in the assay with RXF 393 renal, in the assay on SNB-19 CNS and in the assay on SW-620 colon was > 100 µM each time.

In the case of `COC(=O)CCC(NC(=S)N/N=C/c1cccs1)C(=O)OC` (stereo not drawn), the TGI in the assay with DMS 273 small cell lung, in the assay on HCT-116 colon, with IGROV1 ovarian, with RXF 393 renal, in the assay on SNB-19 CNS and in the assay with SW-620 colon was > 100 µM in each case. Also, the TGI in the assay with XF 498 CNS was > 100 µM.
